From patent US20050214220A1, “Tumor model” (vivoPharm Pty Ltd., priority 2004, published 2005)

Tested on: HC11-NeuT mammary tumors
Experiment: In vivo efficacy in orthotopic HC11-NeuT mammary tumor model
Design: species or system Balb/c mice
Settings: intravenous, 10 mg/kg body weight
Source text: HC11 cells were infected with the pBabe-puro retrovirus as described in Morgenstern and Land (1990) Nucl. Acids Res. 18:3587-3596. Cells were either infected with the pBabe-puro encoding oncogenic NeuT (pBabe-puro NeuT) or control pBabe-puro. In this case, oncogenic activation is by the ErbB2 receptor tyrosine kinase (RTK). The receptor is constitutively activated in a ligand-independent manner due to spontaneous dimerization.
High-titer, helper-free recombinant retroviruses were produced from BOSC-23 cells transiently transfected with plasmid DNA, using the CaPO4 technique, as described in Pear et al. (1993) Proc. Natl. Acad. Sci. 90:8392-8396. HC11 cells were infected by exposure to filtered conditioned medium from 24-48 h transfected BOSC-23 cultures, in the presence of 40 μg/ml polybrene. One day later the medium was replaced with fresh virus-containing medium. Cells were trypsinized, split 1:2 into HC11 growth medium containing 0.75 μg/ml puromycin and selected for 3-4 days. One day before harvesting, the cells were cultured in the absence of puromycin, trypsinized cells were washed, resuspended at 0.5-1.0×10^6 cells/10 μl PBS and implanted in the fat pad as described in below.
All experiments were performed with Balb/c mice. Transplants were performed on 8-10 week-old females. The anesthetized mouse was pinned on a cork board and scrubbed with 70% ethanol. […]

SMILES: CC(=O)O[C@H]1C(=O)[C@@]2(C)[C@H]([C@H](OC(=O)c3ccccc3)[C@]3(O)C[C@H](OC(=O)[C@H](O)[C@@H](NC(=O)c4ccccc4)c4ccccc4)C(C)=C1C3(C)C)[C@]1(OC(C)=O)CO[C@@H]1C[C@@H]2O [Taxol]
- reduction of tumor growth or cell proliferation: no significant reduction
